Assay results as given in patent publication US11292773B2, “Small molecule inhibitors of BCL-2-associated death promoter (BAD) phosphorylation” (NATIONAL UNIVERSITY OF SINGAPORE, priority 2017, dated 2022).

Tests used:
AKT = test: Western blot of pAKT (Ser473), AKT, pBAD (Ser99) and BAD in carcinoma cell lines; format: cell-based, human; set-up: dose or concentration left out as unconfirmed; conditions: MCF7, Caov-3, Ishikawa, AsPC-1
Procedure: (A) WB analysis was used to assess the levels of phosphorylated human BAD (at Ser75 and Ser99) and BAD protein in the range of carcinoma cell lines, including mammary, ovarian, pancreatic, endometrial, hepatocellular, colon and prostate cancer after treatment with NPB (5 μM). Total BAD was used as an input control for cell lysate. (B) WB analysis was used to assess the levels of pBAD (Ser99) and pAKT (Ser473), AKT and BAD in MCF7, Caov-3, Ishikawa, and AsPC-1 cells. […] Depletion of AKT expression was achieved using transient-transfection of short hairpin (sh)-RNA (1&2) directed to AKT transcript as described in methodology. β-ACTIN was used as an input control for cell lysate. For WB analysis, soluble whole cell extracts were run on an SDS-PAGE and immunoblotted as described in materials methodology. The sizes of detected protein bands in kDa are shown on the left side. Note: #; non-transformed immortalized-cell line.
The upstream AKT Ser/Thr kinase regulates the phosphorylation of hBAD at Ser99 [13]. We therefore determined whether NPB inhibits the phosphorylation of hBAD (Ser99) via modulation of the activity of AKT (as indicated by phosphorylation of Ser473) using western blot analysis. We observed no change in the levels of pAKT or levels of total AKT protein after exposure of four different carcinoma cells lines (MCF7, Caov-3, Ishikawa, and AsPC-1) to 10 μM NPB. […]

MCF7 xenograft = MCF7 xenograft in BALB/c-nu female mice; format: in vivo
Procedure: (A) Measurement of tumour volume in BALB/c-nu female mice as described in materials and methods. Animals (n=5 each group) were treated with vehicle, 5 mg/kg NPB or 20 mg/kg NPB, and relative tumour burden was recorded. Animal weight was measured daily for the duration of the experiment. (B) Tumours were excised after the NPB treatment regime and weighed. Representative resected tumours are shown in the right side. (C) WB of tumour tissue to determine levels of p-BAD (Ser99) and BAD. Soluble whole cell extracts were run on an SDS-PAGE and immunoblotted as described in methodology. β-ACTIN was used as an input control. The sizes of detected protein bands in kDa are shown on the left side. (D) Histological analyses of phospho-BAD, BAD, Ki67 and TUNEL staining. […] Apoptotic DNA fragmentation was detected using TUNEL Apoptosis Detection Kit (Gen Script USA Inc.) as described in methodology. Statistical significance was assessed by an unpaired two-tailed Student's t-test (P<0.05 was considered as significant) using GraphPad Prism5. The point represents mean of triplicate experiments; bars, ±SD. **P<0.001, *P<0.05.
5- to 6-week-old BALB/c-nu female mice were subcutaneously implanted with 17β-estradiol pellets (Innovative Research of America) at 0.72 mg/pellet with a 60-day release in the scruff of the neck after three days mice were injected subcutaneously with 100 μl of cell suspension (1×10^7 cells) in right flanks. Tumour growth was monitored by measuring the tumour size using callipers. About 12 days after implantation, mice were randomized and divided into three groups (each group, n=8), according to treatments administered 200 μl of NPB (dissolved in 5% DMSO, 50% PEG400 and 45% water pH 5.0) by intraperitoneal injection every day for seven days. The first group of mice was treated with vehicle, the second with 5 mg/kg dose of NPB, and the third with 20 mg/kg dose of NPB. Animal weight and tumour volumes were measured daily. After completion tumours were excised, photographed, weighed, and fixed or stored in liquid nitrogen for later analysis. Histological analysis was performed as previously described (30-32).
We examined the in vivo efficacy of NPB in a xenograft (MCF7) of MC. Randomly grouped mice with preformed tumours (volume ˜[…]) were injected intraperitoneally with vehicle or NPB at 5 mg/kg or 20 mg/kg. […] However, the tumour weight of NPB-treated animals was reduced compared to vehicle-treated mice and in a dose-dependent manner (FIG. 17B). We further analysed the effect of NPB on hBAD Ser99 phosphorylation levels in tumour tissue using WB analysis (FIG. 17C).

[1] = 5 mg/kg or 20 mg/kg intraperitoneal, daily for seven days, vs vehicle
[2] = histological analysis, vs vehicle
[3] = tumour tissue, western blot, vs control

O=C(NC1CCCC1)c1cccc(C(c2ccccc2O)N2CCN(c3cccc(Cl)c3Cl)CC2)c1 (stereo not shown) [NPB, N-cyclopentyl-3-((4-(2,3-dichlorophenyl)piperazin-1-yl)(2-hydroxyphenyl)methyl) benzamide]
BAD phosphorylation at the Ser99 site (AKT): inhibition
levels of pAKT or total AKT protein (AKT): no change
animal weight (MCF7 xenograft; [1]): not significantly different
tumour volume (MCF7 xenograft; [1]): significant reduction
tumour weight (MCF7 xenograft; 5 mg/kg or 20 mg/kg intraperitoneal, dose-dependent, vs vehicle): reduced
TUNEL positivity in tumours (MCF7 xenograft; [2]): significantly increased
p-BAD (Ser99) in tumour specimens (histology) (MCF7 xenograft; [2]): significantly reduced
percentage of Ki67 positive cells in tumours (MCF7 xenograft; [2]): significantly decreased
phosphorylation of BAD (at Ser99) in tumour tissue (WB) (MCF7 xenograft; [3]): significantly inhibited
total levels of BAD protein in tumours (WB) (MCF7 xenograft; [3]): No change
